How the values were obtained:
hERG potassium channel = hERG potassium channel (Homo sapiens (Human), UniProt Q12809); assay: hERG Analysis - Method 2 (QPATCH HT, CHO-hERG cells); assay type: cell-based; settings: half-maximal inhibition concentration, 22±2° C.
Procedure: The hERG potassium current was measured in a hERG-stably-expressing Chinese hamster ovary K1 (CHO) cells. The experiments were performed using an automated planar patch-clamp system QPATCH HT (Sophion Bioscience A/S). The application of pressure for forming gigaseals and whole-cell patch clamp configuration were established using the QPATCH assay software. Patch-clamp experiments were performed in voltage-clamp mode and whole-cell currents were recorded from individual cells. The following stimulation protocol was applied to investigate the effects of compounds on hERG potassium channel: The membrane potential was held at −80 mV and repetitively (every 15 s) depolarized to +20 mV for 5 s after the pulse to −50 mV for 20 ms served to define the baseline, followed by repolarizing step to −50 mV for 5 s to evaluate of the tail current amplitude. Experiments were conducted at room temperature (22±2° C.).
Effects of compounds were determined from cumulative applications of increasing 4 concentrations and calculated as percent of blocked current. The data points were fitted with Hill equation to calculate half-maximal inhibition concentrations. The test solution includes: Extracellular solution (mM): 2 mM of CaCl2, 1 mM of MgCl2, 10 mM of HEPES, 4 mM of KCl, 145 mM of NaCl, and 10 mM of Glucose; and Intracellular solution (mM): 5.4 mM of CaCl2, 1.8 mM of MgCl2, 10 mM of HEPES, 31 mM of KOH, 10 mM of EGTA, 120 mM of KCl, and 4 mM of ATP.

hERG ion channel = hERG ion channel (Homo sapiens (Human), UniProt Q12809); assay: hERG Analysis - Method 1 (IONWORKS HT, CHO-hERG cells); assay type: cell-based; settings: ~21° C.
Chain of hERG ion channel (Q12809 whole entry): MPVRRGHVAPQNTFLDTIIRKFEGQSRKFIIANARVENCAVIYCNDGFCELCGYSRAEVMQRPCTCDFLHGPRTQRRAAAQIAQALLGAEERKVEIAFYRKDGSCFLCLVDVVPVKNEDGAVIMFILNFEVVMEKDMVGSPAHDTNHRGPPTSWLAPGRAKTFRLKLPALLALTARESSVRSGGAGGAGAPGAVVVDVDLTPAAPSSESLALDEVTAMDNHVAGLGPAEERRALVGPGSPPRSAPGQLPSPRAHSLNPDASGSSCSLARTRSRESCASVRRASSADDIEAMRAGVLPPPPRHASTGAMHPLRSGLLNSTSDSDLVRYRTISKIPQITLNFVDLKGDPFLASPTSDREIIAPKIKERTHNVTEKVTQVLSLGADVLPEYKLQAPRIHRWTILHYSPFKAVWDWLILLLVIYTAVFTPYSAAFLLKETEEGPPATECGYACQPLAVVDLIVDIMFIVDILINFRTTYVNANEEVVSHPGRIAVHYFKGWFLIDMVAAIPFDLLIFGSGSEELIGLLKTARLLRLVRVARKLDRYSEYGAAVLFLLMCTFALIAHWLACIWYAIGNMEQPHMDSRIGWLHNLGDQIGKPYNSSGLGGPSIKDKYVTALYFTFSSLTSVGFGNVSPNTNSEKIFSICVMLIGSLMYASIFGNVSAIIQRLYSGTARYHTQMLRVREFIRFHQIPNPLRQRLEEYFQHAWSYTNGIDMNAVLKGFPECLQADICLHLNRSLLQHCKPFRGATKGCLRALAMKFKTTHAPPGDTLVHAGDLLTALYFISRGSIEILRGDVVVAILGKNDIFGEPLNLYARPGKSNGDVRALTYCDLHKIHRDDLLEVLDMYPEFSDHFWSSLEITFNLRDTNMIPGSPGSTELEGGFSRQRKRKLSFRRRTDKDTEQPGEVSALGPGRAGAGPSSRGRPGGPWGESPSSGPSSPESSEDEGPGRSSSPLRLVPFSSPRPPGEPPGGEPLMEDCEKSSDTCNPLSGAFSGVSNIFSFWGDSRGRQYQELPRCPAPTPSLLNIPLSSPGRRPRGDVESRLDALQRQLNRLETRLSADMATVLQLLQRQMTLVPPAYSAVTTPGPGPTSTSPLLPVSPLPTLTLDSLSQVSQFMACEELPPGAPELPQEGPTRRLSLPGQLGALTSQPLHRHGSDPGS
Procedure: The hERG-expressing Chinese hamster ovary K1 (CHO) cells described by (Persson, Carlsson, Duker, & Jacobson, 2005) were grown to semi-confluence at 37° C. in a humidified environment (5% CO2) in F-12 Ham medium containing L-glutamine, 10% foetal calf serum (FCS) and 0.6 mg/mL hygromycin (all available from Sigma-Aldrich). Prior to use, the monolayer was washed using a pre-warmed (37° C.) 3 mL aliquot of Versene 1:5,000 (Invitrogen) After aspiration of this solution the flask was incubated at 37° C. in an incubator with a further 2 mL of Versene 1:5,000 for a period of 6 minutes. Cells were then detached from the bottom of the flask by gentle tapping and 10 mL of Dulbecco's Phosphate-Buffered Saline containing calcium (0.9 mM) and magnesium (0.5 mM) (PBS; Invitrogen) was then added to the flask and aspirated into a 15 mL centrifuge tube prior to centrifugation (50 g, for 4 mins). The resulting supernatant was discarded and the pellet gently re-suspended in 3 mL of PBS. A 0.5 mL aliquot of cell suspension was removed and the number of viable cells (based on trypan blue exclusion) was determined in an automated reader (Cedex; Innovatis) so that the cell re-suspension volume can be adjusted with PBS to give the desired final cell concentration. It is the cell concentration at this point in the assay that is quoted when referring to this parameter. CHO-Kv1.5 cells, which were used to adjust the voltage offset on IONWORKS™ HT, were maintained and prepared for use in the same way.
The principles and operation of this device have been described by (Schroeder, Neagle, Trezise, & Worley, 2003). Briefly, the technology is based on a 384-well plate (PATCHPLATE™) in which a recording was attempted in each well by using suction to position and hold a cell on a small hole separating two isolated fluid chambers. Once sealing had taken place, the solution on the underside of the PATCHPLATE™ was changed to one containing amphotericin B. This permeablises the patch of cell membrane covering the hole in each well and, in effect, allowed a perforated, whole-cell patch clamp recording to be made.
A β-test IONWORKS™ HT from Essen Instrument was used. […] (˜21° C.), as follows. The reservoir in the “Buffer” position was loaded with 4 mL of PBS and that in the “Cells” position with the CHO-hERG cell suspension described above. A 96-well plate (V-bottom, Greiner Bio-one) containing the compounds to be tested (at 3-fold above their final test concentration) was placed in the “Plate 1” position and a PATCHPLATE™ was clamped into the PATCHPLATE™ station. […]

Renca mouse tumour cells = assay: Tumour growth studies in Renca, a murine syngeneic renal carcinoma tumour model; assay type: in vivo; settings: Balb/C mice, 0.3 mg/kg once a week p.o. on days 1, 8, 15; vs 0.5% methylcellulose; FIG. 9
Procedure: Experiments were conducted on female mice (Balb/C genotype, at least 5 weeks old). Renca mouse tumour cells (Cancer Chemother Pharmacol. 1995; 36 (1): 7-12) were kindly provided by Dr. T. Fujioka at Department of Urology, Iwate Medical University School of Medicine. Renca mouse tumour cells (5×10^4) were implanted subcutaneously in the flank of mice on day 0. Mice were treated with either drug vehicle (0.5% methylcellulose), the compound of Example 3 (0.3 mg/kg once a week) or the compound of Example 4 (3 mg/kg once a week) administered orally (p. o.) on days 1, 8, and 15. Tumour volumes were assessed at least twice weekly by bilateral vernier caliper measurements.
Tumour growth inhibition from the start of treatment was assessed by comparison of the differences in tumour growth rate between control and the compound of Example 3 treated groups, as shown in FIG. 9.
Tumour growth inhibition from the start of treatment was assessed by comparison of the differences in tumour growth rate between control and the compound of the Example 4 treated groups, as shown in FIG. 10.

Chain of hERG potassium channel (Q12809 whole entry): as above

CCC[C@@H](CCO)Nc1nc(N)nc(C)c1Cc1ccc(CN(CC(=O)O)CC(F)F)cc1OC [Example 3, (S)-2-((4-((2-amino-4-(1-hydroxyhexan-3-ylamino)-6-methylpyrimidin-5-yl)methyl)-3-methoxybenzyl)(2,2-difluoroethyl)amino)acetic acid]
IC50 (hERG potassium channel): > 10 µM
IC50 (hERG ion channel): > 33 µM
Tumour growth inhibition (Renca mouse tumour cells): inhibited tumour growth
